Columns and labels:
Test in all cases: relative viability (nuclei count vs DMSO), 5 days (fraction); higher = more cells survive
Crenolanib + Tozasertib = compound: CC1(COc2ccc3c(c2)ncn3-c2ccc3cccc(N4CCC(N)CC4)c3n2)COC1 [Crenolanib] + Cc1cc(Nc2cc(N3CCN(C)CC3)nc(Sc3ccc(NC(=O)C4CC4)cc3)n2)n[nH]1 [Tozasertib] (partner 0.1 µM)
Outline: (§1)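 Relative viability was taken as the ratio of nuclei in treated wells to nuclei in vehicle wells. Lung cancer cell lines in 1536-well plates received compounds by pin tool one day after seeding, either one drug alone or a fixed anchor-drug dose plus five library-drug doses (not always all listed) in √10 steps. Nuclei were counted on 4× images after 5 days of treatment, and values are medians of duplicate plates.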

Crenolanib + Bortezomib = compound: CC1(COc2ccc3c(c2)ncn3-c2ccc3cccc(N4CCC(N)CC4)c3n2)COC1 [Crenolanib] + CC(C)C[C@H](NC(=O)[C@H](Cc1ccccc1)NC(=O)c1cnccn1)B(O)O [Bortezomib] (partner 0.002 µM)
Outline: as §1

Crenolanib + Lapatinib = compound: CC1(COc2ccc3c(c2)ncn3-c2ccc3cccc(N4CCC(N)CC4)c3n2)COC1 [Crenolanib] + CS(=O)(=O)CCNCc1ccc(-c2ccc3ncnc(Nc4ccc(OCc5cccc(F)c5)c(Cl)c4)c3c2)o1 [Lapatinib] (partner 2 µM)
Outline: as §1

Crenolanib + Olaparib = compound: CC1(COc2ccc3c(c2)ncn3-c2ccc3cccc(N4CCC(N)CC4)c3n2)COC1 [Crenolanib] + O=C(c1cc(Cc2n[nH]c(=O)c3ccccc23)ccc1F)N1CCN(C(=O)C2CC2)CC1 [Olaparib] (partner 8 µM)
Outline: as §1

Cell Line | relative viability (Crenolanib + Tozasertib; first compound 0.01 µM) | relative viability (Crenolanib + Tozasertib; first compound 0.03162 µM) | relative viability (Crenolanib + Tozasertib; first compound 0.1 µM) | relative viability (Crenolanib + Tozasertib; first compound 0.3162 µM) | relative viability (Crenolanib + Tozasertib; first compound 1 µM) | relative viability (Crenolanib + Bortezomib; first compound 0.01 µM) | relative viability (Crenolanib + Bortezomib; first compound 0.03162 µM) | relative viability (Crenolanib + Bortezomib; first compound 0.1 µM) | relative viability (Crenolanib + Bortezomib; first compound 0.3162 µM) | relative viability (Crenolanib + Bortezomib; first compound 1 µM) | relative viability (Crenolanib + Lapatinib; first compound 0.01 µM) | relative viability (Crenolanib + Lapatinib; first compound 0.03162 µM) | relative viability (Crenolanib + Lapatinib; first compound 0.1 µM) | relative viability (Crenolanib + Lapatinib; first compound 0.3162 µM) | relative viability (Crenolanib + Lapatinib; first compound 1 µM) | relative viability (Crenolanib + Olaparib; first compound 0.01 µM) | relative viability (Crenolanib + Olaparib; first compound 0.03162 µM) | relative viability (Crenolanib + Olaparib; first compound 0.1 µM) | relative viability (Crenolanib + Olaparib; first compound 0.3162 µM) | relative viability (Crenolanib + Olaparib; first compound 1 µM)
NCI-H1666 | 0.695 | 0.613 | 0.633 | 0.591 | 0.555 | 0.9 | 0.711 | 0.858 | 1.01 | 0.667 | 0.772 | 0.579 | 0.799 | 0.872 | 0.509 | 0.764 | 0.717 | 0.723 | 0.692 | 0.749
NCI-H460 | 0.621 | 0.44 | 0.421 | 0.056 | 0.397 | 1.05 | 1.2 | 1.01 | 1.6 | 0.954 | 0.997 | 1 | 1.04 | 1.46 | 1.01 | 0.445 | 0.366 | 0.405 | 0.438 | 0.415
LCLC-97TM1 | 0.268 | 0.194 | 0.247 | 0.202 | 0.258 | 0.454 | 0.396 | 0.69 | 0.896 | 0.699 | 0.895 | 0.861 | 0.748 | 0.959 | 0.784 | 0.395 | 0.53 | 0.383 | 0.42 | 0.412
LOU-NH91 | 0.767 | 0.655 | 0.653 | 0.431 | 0.616 | 0.336 | 0.474 | 0.45 | 0.49 | 0.513 | 0.798 | 0.742 | 0.774 | 0.737 | 0.772 | 0.943 | 0.88 | 0.837 | 0.971 | 0.905
NCI-H838 | 0.321 | 0.287 | 0.25 | 0.266 | 0.251 | 0.774 | 0.796 | 0.984 | 0.77 | 0.566 | 1.07 | 0.966 | 0.993 | 1.02 | 0.805 | 0.828 | 0.776 | 0.735 | 0.855 | 0.635
NCI-H1437 | 0.458 | 0.443 | 0.415 | 0.437 | 0.39 | 0.48 | 0.408 | 0.557 | 0.515 | 0.526 | 0.751 | 0.762 | 0.808 | 0.873 | 0.688 | 0.632 | 0.636 | 0.621 | 0.647 | 0.591
NCI-H2087 | 0.219 | 0.277 | 0.239 | 0.262 | 0.254 | 0.885 | 0.74 | 0.917 | 0.865 | 0.947 | 1.14 | 1 | 0.985 | 1.18 | 1.09 | 0.602 | 0.643 | 0.547 | 0.671 | 0.623

Source: the supplement of paper PMC10307832
